Measurements: the NIST ThermoML archive (doi:10.1016/j.tca.2017.07.001)
“And” between values parts separate entries of the source, which are not always exact repeats. Identical values can stand only once.

Conditions: Liquid, Transpiration method

CC(C)(C)[N+](=O)[O-] [2-methyl-2-nitropropane]
Conditions | vapor or sublimation pressure [kPa]
299.3 K | 2.054
303.2 K | 2.553
304.2 K | 2.705
308.2 K | 3.261
309.2 K | 3.527
313.2 K | 4.205
314.2 K | 4.41
318.2 K | 5.269
323.2 K | 6.65
328.1 K | 8.479

CC(C)[N+](=O)[O-] [2-nitropropane]
Conditions | vapor or sublimation pressure
274.7 K | 0.609 kPa
274.8 K | 0.604 kPa and 0.597 kPa
279.5 K | 0.799 kPa
279.6 K | 0.827 kPa
284.4 K | 1.092 kPa and 1.091 kPa
289.3 K | 1.459 kPa
294.2 K | 1.953 kPa
294.3 K | 1.9 kPa
299.2 K | 2.574 kPa
304.1 K | 3.344 kPa
304.2 K | 3.336 kPa
309.1 K | 4.299 kPa
314.1 K | 5.612 kPa and 5.563 kPa
